# Data published in patent publication US10150760B2, “Compounds for use in preparing heterocyclic triazole agonists of the APJ receptor” (AMGEN INC., priority 2016, dated 2018).
# Target: human APJ receptor (Homo sapiens (Human), UniProt P35414)
# Assay: [35S]GTPγS binding assay on membranes from CHO cells stably expressing human APJ receptor
# Format: biochemical
# Conditions: read-out: Activity hAPJ SPA EC50 IP
# Outline: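 Agonist-driven [35S]GTPγS (0.2 nM) binding was measured over 90 min at room temperature on human APJ-expressing CHO membranes with bead capture, in buffer containing 3 μM GDP, 200 mM NaCl and 5 mM MgCl2 (pH 7.5). Excess unlabelled GTPγS (100 μM) gave nonspecific signal; EC50 from non-linear fits.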
# Chain of human APJ receptor (P35414 whole entry): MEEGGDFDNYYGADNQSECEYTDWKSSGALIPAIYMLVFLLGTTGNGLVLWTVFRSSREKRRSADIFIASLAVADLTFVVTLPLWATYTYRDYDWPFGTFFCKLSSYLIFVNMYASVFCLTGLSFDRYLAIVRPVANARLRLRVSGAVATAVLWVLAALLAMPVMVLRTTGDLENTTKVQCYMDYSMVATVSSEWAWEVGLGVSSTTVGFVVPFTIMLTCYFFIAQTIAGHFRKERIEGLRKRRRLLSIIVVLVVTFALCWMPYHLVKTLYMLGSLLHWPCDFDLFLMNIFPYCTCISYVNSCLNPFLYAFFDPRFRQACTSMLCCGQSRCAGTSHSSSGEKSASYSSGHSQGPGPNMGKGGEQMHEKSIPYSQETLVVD
row,EC50,Substance
1,> 4200 nM,"(1R,2S)-N-(4-(2,6-dimethoxyphenyl)-5-((S)-3-oxoisoindolin-1-yl)-4H-1,2,4-triazol-3-yl)-1-methoxy-1-(5-methylpyrimidin-2-yl)propane-2-sulfonamide or (1R,2S)-N-(4-(2,6-dimethoxyphenyl)-5-((R)-3-oxoisoindolin-1-yl)-4H-1,2,4-triazol-3-yl)-1-methoxy-1-(5-methylpyrimidin-2-yl)propane-2-sulfonamide [Example 236.0]"
2,590 nM,"(1R,2S)-N-(4-(2,6-dimethoxyphenyl)-5-((S)-3-oxoisoindolin-1-yl)-4H-1,2,4-triazol-3-yl)-1-methoxy-1-(5-methylpyrimidin-2-yl)propane-2-sulfonamide or (1R,2S)-N-(4-(2,6-dimethoxyphenyl)-5-((R)-3-oxoisoindolin-1-yl)-4H-1,2,4-triazol-3-yl)-1-methoxy-1-(5-methylpyrimidin-2-yl)propane-2-sulfonamide [Example 237.0]"
3,20 nM,"(1R,2S)-N-(4-(2,6-dimethoxyphenyl)-5-((S)-tetrahydro-2H-pyran-3-yl)-4H-1,2,4-triazol-3-yl)-1-hydroxy-1-(5-methylpyrimidin-2-yl)propane-2-sulfonamide or (1R,2S)-N-(4-(2,6-dimethoxyphenyl)-5-((R)-tetrahydro-2H-pyran-3-yl)-4H-1,2,4-triazol-3-yl)-1-hydroxy-1-(5-methylpyrimidin-2-yl)propane-2-sulfonamde [Example 194.0]"
4,180 nM,"(1R,2S)-N-(4-(2,6-dimethoxyphenyl)-5-((S)-tetrahydro-2H-pyran-3-yl)-4H-1,2,4-triazol-3-yl)-1-hydroxy-1-(5-methylpyrimidin-2-yl)propane-2-sulfonamide or (1R,2S)-N-(4-(2,6-dimethoxyphenyl)-5-((R)-tetrahydro-2H-pyran-3-yl)-4H-1,2,4-triazol-3-yl)-1-hydroxy-1-(5-methylpyrimidin-2-yl)propane-2-sulfonamide [Example 193.0]"
5,230 nM,"(1R,2S)-N-(4-([1,1′-bi(cyclopropyl)]-1-yl)-5-((2R)-1,4-dioxan-2-yl)-4H-1,2,4-triazol-3-yl)-1-methoxy-1-(5-methyl-2-pyrazinyl)-2-propanesulfonamide or (1R,2S)-N-(4-([1,1′-bi(cyclopropyl)]-1-yl)-5-((2S)-1,4-dioxan-2-yl)-4H-1,2,4-triazol-3-yl)-1-methoxy-1-(5-methyl-2-pyrazinyl)-2-propanesulfonamide [Example 328.0]"
6,1300 nM,"(1R,2S)-N-(4-([1,1′-bi(cyclopropyl)]-1-yl)-5-((2R)-1,4-dioxan-2-yl)-4H-1,2,4-triazol-3-yl)-1-methoxy-1-(5-methyl-2-pyrazinyl)-2-propanesulfonamide or (1R,2S)-N-(4-([1,1′-bi(cyclopropyl)]-1-yl)-5-((2S)-1,4-dioxan-2-yl)-4H-1,2,4-triazol-3-yl)-1-methoxy-1-(5-methyl-2-pyrazinyl)-2-propanesulfonamide [Example 329.0]"

row,Substance,EC50
1,"(1R,2S)-N-(4-(4,6-dimethoxypyrimidin-5-yl)-5-((S)-tetrahydrofuran-2-yl)-4H-1,2,4-triazol-3-yl)-1-methoxy-1-(5-methylpyrazin-2-yl)propane-2-sulfonamide or (1R,2S)-N-(4-(4,6-dimethoxypyrimidin-5-yl)-5-((R)-tetrahydrofuran-2-yl)-4H-1,2,4-triazol-3-yl)-1-methoxy-1-(5-methylpyrazin-2-yl)propane-2-sulfonamide [Example 185.0]",510 nM
2,"(1R,2S)-N-(4-(4,6-dimethoxypyrimidin-5-yl)-5-((S)-tetrahydrofuran-2-yl)-4H-1,2,4-triazol-3-yl)-1-methoxy-1-(5-methylpyrazin-2-yl)propane-2-sulfonamide or (1R,2S)-N-(4-(4,6-dimethoxypyrimidin-5-yl)-5-((R)-tetrahydrofuran-2-yl)-4H-1,2,4-triazol-3-yl)-1-methoxy-1-(5-methylpyrazin-2-yl)propane-2-sulfonamide [Example 186.0]",80 nM
